Test results as given in the supplement of paper PMC11061612.

Assays:
Prexasertib = compound: COc1cccc(OCCCN)c1-c1cc(Nc2cnc(C#N)cn2)n[nH]1 [Prexasertib]; details: max 1 µM
Procedure, shortened: (§1)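 In 1536-well plates, cancer cell lines in 7.5 μl DMEM/F12 or RPMI with 10% FBS spent 24 hours at 37°C and 5% CO2 and were then dosed for 72 hours with final DMSO typically 0.2%. Viability was read by CellTiter-Glo 2.0 luminescence and scaled between blank-well and DMSO-well means. The single-agent IC50 was fitted from dose responses using a logistic curve in a non-linear mixed effects model, and that logistic curve had two parameters.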

Savolitinib = compound: C[C@@H](c1ccc2nccn2c1)n1nnc2ncc(-c3cnn(C)c3)nc21 [Savolitinib]; details: max 1 µM
Procedure, shortened: as §1

Gefitinib = compound: COc1cc2ncnc(Nc3ccc(F)c(Cl)c3)c2cc1OCCCN1CCOCC1 [Gefitinib]; details: max 10 µM
Procedure, shortened: as §1

MK-2206 = compound: NC1(c2ccc(-c3nc4ccn5c(=O)[nH]nc5c4cc3-c3ccccc3)cc2)CCC1 [MK-2206]; details: max 10 µM
Procedure, shortened: as §1

AZD7648 = compound: Cc1cc2ncnn2cc1Nc1ncc2c(n1)n(C1CCOCC1)c(=O)n2C [AZD7648]; details: max 10 µM
Procedure, shortened: as §1

Dasatinib = compound: CC1=C(C(=CC=C1)Cl)NC(=O)C2=CN=C(S2)NC3=CC(=NC(=N3)C)N4CCN(CC4)CCO [Dasatinib]; details: max 2 µM
Procedure, shortened: as §1

AZD5153 = compound: COc1nnc2ccc(N3CCC(c4ccc(OCCN5CCN(C)C(=O)[C@H]5C)cc4)CC3)nn12 [AZD5153]; details: max 1 µM
Procedure, shortened: as §1

AZD8186 = compound: C[C@@H](Nc1cc(F)cc(F)c1)c1cc(C(=O)N(C)C)cc2c(=O)cc(N3CCOCC3)oc12 [AZD8186]; details: max 10 µM
Procedure, shortened: as §1

Olaparib = compound: O=C(c1cc(Cc2n[nH]c(=O)c3ccccc23)ccc1F)N1CCN(C(=O)C2CC2)CC1 [Olaparib]; details: max 10 µM
Procedure, shortened: as §1

AZD4320 = compound: CN(CC[C@H](CSC1=CC=CC=C1)NC2=C(C=C(C=C2)S(=O)(=O)NC(=O)C3=CC=C(C=C3)N4CCC(CC4)[C@H](C5=CC=CC=C5C6=CC=C(C=C6)Cl)O)S(=O)(=O)C(F)(F)F)CCO [AZD4320]; details: max 1 µM
Procedure, shortened: as §1

Palbociclib = compound: CC(=O)c1c(C)c2cnc(Nc3ccc(N4CCNCC4)cn3)nc2n(C2CCCC2)c1=O [Palbociclib]; details: max 10 µM
Procedure, shortened: as §1

AZD1390 = compound: CC(C)n1c(=O)n(C)c2cnc3cc(F)c(-c4ccc(OCCCN5CCCCC5)nc4)cc3c21 [AZD1390]; details: max 0.3 µM
Procedure, shortened: as §1

Carboplatin = compound: C1CC(C1)(C(=O)[O-])C(=O)[O-].N.N.[Pt+2] [Carboplatin]; details: max 10 µM
Procedure, shortened: as §1

Lapatinib = compound: CS(=O)(=O)CCNCc1ccc(-c2ccc3ncnc(Nc4ccc(OCc5cccc(F)c5)c(Cl)c4)c3c2)o1 [Lapatinib]; details: max 10 µM
Procedure, shortened: as §1

Gemcitabine = compound: Nc1ccn([C@@H]2O[C@H](CO)[C@@H](O)C2(F)F)c(=O)n1 [Gemcitabine]; details: max 0.3 µM
Procedure, shortened: as §1

Doxorubicin = compound: COc1cccc2c1C(=O)c1c(O)c3c(c(O)c1C2=O)C[C@@](O)(C(=O)CO)C[C@@H]3O[C@H]1C[C@H](N)[C@H](O)[C@H](C)O1 [Doxorubicin]; details: max 1 µM
Procedure, shortened: as §1

Paclitaxel = compound: CC(=O)O[C@H]1C(=O)[C@@]2(C)[C@H]([C@H](OC(=O)c3ccccc3)[C@]3(O)C[C@H](OC(=O)[C@H](O)[C@@H](NC(=O)c4ccccc4)c4ccccc4)C(C)=C1C3(C)C)[C@]1(OC(C)=O)CO[C@@H]1C[C@@H]2O [Paclitaxel]; details: max 3 µM
Procedure, shortened: as §1

Alisertib = compound: COc1cc(Nc2ncc3c(n2)-c2ccc(Cl)cc2C(c2c(F)cccc2OC)=NC3)ccc1C(=O)O [Alisertib]; details: max 10 µM
Procedure, shortened: as §1

AZD0156 = compound: CN(C)CCCOc1ccc(-c2ccc3ncc4c(c3c2)n(C2CCOCC2)c(=O)n4C)cn1 [AZD0156]; details: max 3 µM
Procedure, shortened: as §1

AZD5363 = compound: C1CN(CCC1(C(=O)N[C@@H](CCO)C2=CC=C(C=C2)Cl)N)C3=NC=NC4=C3C=CN4 [AZD5363]; details: max 10 µM
Procedure, shortened: as §1

5-Fluorouracil = compound: O=c1[nH]cc(F)c(=O)[nH]1 [5-Fluorouracil]; details: max 20 µM
Procedure, shortened: as §1

AZD6738 = compound: C[C@@H]1COCCN1C2=NC(=NC(=C2)C3(CC3)[S@](=N)(=O)C)C4=C5C=CNC5=NC=C4 [AZD6738]; details: max 10 µM
Procedure, shortened: as §1

Trametinib = compound: CC(=O)Nc1cccc(-n2c(=O)n(C3CC3)c(=O)c3c(Nc4ccc(I)cc4F)n(C)c(=O)c(C)c32)c1 [Trametinib]; details: max 1 µM
Procedure, shortened: as §1

Taselisib = compound: Cc1nc(-c2cn3c(n2)-c2ccc(-c4cnn(C(C)(C)C(N)=O)c4)cc2OCC3)n(C(C)C)n1 [Taselisib]; details: max 10 µM
Procedure, shortened: as §1

AZD1775 = compound: C=CCn1c(=O)c2cnc(Nc3ccc(N4CCN(C)CC4)cc3)nc2n1-c1cccc(C(C)(C)O)n1 [AZD1775]; details: max 3 µM
Procedure, shortened: as §1

SN-38 = compound: CCc1c2c(nc3ccc(O)cc13)-c1cc3c(c(=O)n1C2)COC(=O)[C@]3(O)CC [SN-38]; details: max 0.3 µM
Procedure, shortened: as §1

SRA737 = compound: N#Cc1cnc(Nc2cc(NC[C@H]3CNCCO3)c(C(F)(F)F)cn2)cn1 [SRA737]; details: max 10 µM
Procedure, shortened: as §1

Crizotinib = compound: C[C@@H](Oc1cc(-c2cnn(C3CCNCC3)c2)cnc1N)c1c(Cl)ccc(F)c1Cl [Crizotinib]; details: max 10 µM
Procedure, shortened: as §1

[1] = compound: O=C(Nc1ccc2[nH]nc(-c3ccncc3)c2c1)[C@@H]1CCN(CC(=O)N2CCN(c3ccc(-c4ncccn4)cc3)CC2)C1; details: max 5 µM
Procedure, shortened: as §1

Venetoclax = compound: CC1(C)CCC(CN2CCN(c3ccc(C(=O)NS(=O)(=O)c4ccc(NCC5CCOCC5)c([N+](=O)[O-])c4)c(Oc4cnc5[nH]ccc5c4)c3)CC2)=C(c2ccc(Cl)cc2)C1 [Venetoclax]; details: max 1 µM
Procedure, shortened: as §1

Selumetinib = compound: Cn1cnc2c(F)c(Nc3ccc(Br)cc3Cl)c(C(=O)NOCCO)cc21 [Selumetinib]; details: max 10 µM
Procedure, shortened: as §1

AZD2811 = compound: CCN(CCO)CCCOc1ccc2c(Nc3cc(CC(=O)Nc4cccc(F)c4)[nH]n3)ncnc2c1 [AZD2811]; details: max 1 µM
Procedure, shortened: as §1

SG3199 = compound: CC1=CN2[C@@H](C1)C=NC3=CC(=C(C=C3C2=O)OC)OCCCCCOC4=C(C=C5C(=C4)N=C[C@@H]6CC(=CN6C5=O)C)OC [SG3199]; details: max 0.001 µM
Procedure, shortened: as §1

AZD5991 = compound: Cc1c2c(nn1C)CSCc1cc(n(C)n1)CSc1cc(c3ccccc3c1)OCCCc1c(C(=O)O)n(C)c3c-2c(Cl)ccc13 [AZD5991]; details: max 1 µM
Procedure, shortened: as §1

Etoposide = compound: COc1cc([C@@H]2c3cc4c(cc3[C@@H](O[C@@H]3O[C@@H]5CO[C@@H](C)O[C@H]5[C@H](O)[C@H]3O)[C@H]3COC(=O)[C@H]23)OCO4)cc(OC)c1O [Etoposide]; details: max 10 µM
Procedure, shortened: as §1

Cell Line	IC50, cell viability 72 h (Prexasertib) [nM]	IC50, cell viability 72 h (Savolitinib) [nM]	IC50, cell viability 72 h (Gefitinib) [nM]	IC50, cell viability 72 h (MK-2206) [nM]	IC50, cell viability 72 h (AZD7648) [nM]	IC50, cell viability 72 h (Dasatinib) [nM]	IC50, cell viability 72 h (AZD5153) [nM]	IC50, cell viability 72 h (AZD8186) [nM]	IC50, cell viability 72 h (Olaparib) [nM]	IC50, cell viability 72 h (AZD4320) [nM]	IC50, cell viability 72 h (Palbociclib) [nM]	IC50, cell viability 72 h (AZD1390) [nM]	IC50, cell viability 72 h (Carboplatin) [nM]	IC50, cell viability 72 h (Lapatinib) [nM]	IC50, cell viability 72 h (Gemcitabine) [nM]	IC50, cell viability 72 h (Doxorubicin) [nM]	IC50, cell viability 72 h (Paclitaxel) [nM]	IC50, cell viability 72 h (Alisertib) [nM]	IC50, cell viability 72 h (AZD0156) [nM]	IC50, cell viability 72 h (AZD5363) [nM]	IC50, cell viability 72 h (5-Fluorouracil) [nM]	IC50, cell viability 72 h (AZD6738) [nM]	IC50, cell viability 72 h (Trametinib) [nM]	IC50, cell viability 72 h (Taselisib) [nM]	IC50, cell viability 72 h (AZD1775) [nM]	IC50, cell viability 72 h (SN-38) [nM]	IC50, cell viability 72 h (SRA737) [nM]	IC50, cell viability 72 h (Crizotinib) [nM]	IC50, cell viability 72 h [1] [nM]	IC50, cell viability 72 h (Venetoclax) [nM]	IC50, cell viability 72 h (Selumetinib) [nM]	IC50, cell viability 72 h (AZD2811) [nM]	IC50, cell viability 72 h (SG3199) [nM]	IC50, cell viability 72 h (AZD5991) [nM]	IC50, cell viability 72 h (Etoposide) [nM]
SJSA-1 (Osteosarcoma)	156	> 1000	> 10000	> 10000	> 10000	> 2000	533	> 10000	> 10000	> 1000	> 10000	> 300	> 10000	> 10000	82.1	> 1000	79.9	> 10000	> 3000	> 10000	> 20000	> 10000	> 1000	4810	> 3000	87.9	> 10000	> 10000	> 5000	> 1000	> 10000	> 1000	> 1	> 1000	> 10000
SK-GT-4 (Esophageal Adenocarcinoma)	70.7	> 1000	> 10000	> 10000	> 10000	1500	> 1000	> 10000	> 10000	> 1000	> 10000	> 300	> 10000	> 10000	> 300	> 1000	945	> 10000	> 3000	> 10000	> 20000	> 10000	90.1	911	> 3000	> 300	> 10000	> 10000	4610	> 1000	6050	> 1000	> 1	> 1000	> 10000
ST486 (Burkitt's Lymphoma)	7.33	> 1000	> 10000	> 10000	> 10000	220	64.9	> 10000	> 10000	134	> 10000	> 300	> 10000	> 10000	15.9	773	8.5	40	> 3000	> 10000	> 20000	2000	> 1000	> 10000	320	80.9	968	739	4790	> 1000	8880	31.9	> 1	71	1180
T-T (Esophageal Squamous Cell Carcinoma)	350	> 1000	> 10000	> 10000	> 10000	> 2000	> 1000	> 10000	> 10000	> 1000	> 10000	> 300	> 10000	> 10000	> 300	> 1000	29.3	> 10000	> 3000	> 10000	> 20000	> 10000	> 1000	2980	1770	115	> 10000	> 10000	> 5000	> 1000	> 10000	> 1000	> 1	341	> 10000
VMRC-RCZ (Kidney Carcinoma)	> 1000	> 1000	> 10000	> 10000	> 10000	> 2000	> 1000	> 10000	> 10000	> 1000	> 10000	> 300	> 10000	> 10000	> 300	> 1000	> 3000	> 10000	> 3000	> 10000	> 20000	> 10000	> 1000	> 10000	> 3000	> 300	> 10000	> 10000	> 5000	> 1000	> 10000	> 1000	> 1	> 1000	> 10000
